The numbers were not newly measured in patent US20180008711A1, “TRIPLE ANTIBIOTIC CATIONIC OINTMENT” (priority 2015, published 2018), which cites them from elsewhere.

For one data set, the system named is bacteria. The settings on record: very low concentrations.
Data set [1] relates to Staphylococcus aureus (also the methicillin-resistant type, MRSA).
Data set [2] deals with Aspergillus brasiliensis (mold).
The subject of data set [3] is vancomycin-resistant enterococci.
In data set [4] the test system is Klebsiella pneumoniae (carbapenem-resistant enterobacteriaceae).

As to Polyaminopropylbiguanide [PAPB], the bactericidal concentration in the data set on bacteria is 10 mg/1. Besides, in the data set with fungi, the fungicidal result was “fungicidal”.
On to polyhexamethylenebiguanide [PHMB], for which the “effective against Pseudomonas aeruginosa” value with Pseudomonas aeruginosa is given as “effective”. In [1], the “effective against Staphylococcus aureus” value was “effective”. Besides, the “effective against Escherichia coli” value in the data set with Escherichia coli is reported as “effective”. In addition, the “effective against Candida albicans” value in the data set on Candida albicans (yeast) is “effective”. In addition, the “effective against Aspergillus brasiliensis” value in data set [2] was “effective”. Besides, in data set [3], the “effective against vancomycin-resistant enterococci” value is “effective”. The “effective against Klebsiella pneumoniae” value in [4] is listed as “effective”.
